Series [1] relates to Alopecurus myosuroides (ALOMY). Kind of series: Pre-emergence herbicidal activity, glasshouse pot test. It counts as in vivo. The settings on record: Alopecurus myosuroides, 480 h, rate 500 g/ha, evaluated after 20 days, read-out: Pre-emergence activity, ALOMY (100=total damage to plant; 0=no damage to plant). The gist of the method:
(§1)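 Damage was rated visually 20 days after treatment, from 0 (none) to 100 (plant killed). Treatment was a pre-emergence spray of aqueous formulated compound applied to pots sown one day earlier in sterilised soil, with plants then kept under optimum greenhouse conditions.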

For series [2], the system named is Avena fatua (AVEFA). The series is described as above. It counts as in vivo. The settings on record: Avena fatua, 480 h, rate 500 g/ha, evaluated after 20 days, read-out: Pre-emergence activity, AVEFA (100=total damage to plant; 0=no damage to plant). The gist of the method:
as §1

The subject of series [3] is Digitaria sanguinalis (DIGSA). The series is described as above. It counts as in vivo. The settings on record: Digitaria sanguinalis, 480 h, rate 500 g/ha, evaluated after 20 days, read-out: Pre-emergence activity, DIGSA (100=total damage to plant; 0=no damage to plant). The gist of the method: as §1
For series [4], the system named is Echinochloa crus-galli (ECHCG). The series is described as above. It counts as in vivo. The settings on record: Echinochloa crus-galli, 480 h, rate 500 g/ha, evaluated after 20 days, read-out: Pre-emergence activity, ECHCG (100=total damage to plant; 0=no damage to plant). The method, boiled down: as §1
For series [5], the system named is Lolium perenne (LOLPE). The description is as above. To be noted: Lolium perenne, 480 h, rate 500 g/ha, evaluated after 20 days, read-out: Pre-emergence activity, LOLPE (100=total damage to plant; 0=no damage to plant). It counts as in vivo. The method, boiled down: as §1
The test system of series [6] is Setaria faberi (SETFA). The series is described as above. In kind it is in vivo. To be noted: Setaria faberi, 480 h, rate 500 g/ha, evaluated after 20 days, read-out: Pre-emergence activity, SETFA (100=total damage to plant; 0=no damage to plant). The gist of the method: as §1
Series [7] relates to Alopecurus myosuroides (ALOMY). Kind of series: Post-emergence herbicidal activity, glasshouse pot test. It counts as in vivo. To be noted: Alopecurus myosuroides, evaluated after 14 or 15 days, read-out: Post-emergence activity, ALOMY (100=total damage to plant; 0=no damage to plant); for pest or weed control at 500 g/ha: rate 500 g/ha; for pest or weed control at 125 g/ha: rate 125 g/ha. The method, boiled down:
(§2)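 Post-emergence: plants sown in sterilised standard soil, grown 10 days in glasshouse, then sprayed with aqueous solution of active ingredient formulated in acetone with Emulsogen EL, N-methylpyrrolidone, dipropylene glycol monomethyl ether and X-77. Evaluated 14 or 15 days later; scored 0 (no damage) to 100 (total damage).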

Series [8] concerns Avena fatua (AVEFA). The series is described as above. In kind it is in vivo. The settings on record: Avena fatua, evaluated after 14 or 15 days, read-out: Post-emergence activity, AVEFA (100=total damage to plant; 0=no damage to plant); for pest or weed control at 500 g/ha: rate 500 g/ha; for pest or weed control at 125 g/ha: rate 125 g/ha. The method, boiled down: as §2
The subject of series [9] is Digitaria sanguinalis (DIGSA). Described as above. The settings on record: Digitaria sanguinalis, evaluated after 14 or 15 days, read-out: Post-emergence activity, DIGSA (100=total damage to plant; 0=no damage to plant); for pest or weed control at 500 g/ha: rate 500 g/ha; for pest or weed control at 125 g/ha: rate 125 g/ha. In kind it is in vivo. The method, boiled down: as §2

The subject of series [10] is Echinochloa crus-galli (ECHCG). The description is as above. The settings on record: Echinochloa crus-galli, evaluated after 14 or 15 days, read-out: Post-emergence activity, ECHCG (100=total damage to plant; 0=no damage to plant); for pest or weed control at 500 g/ha: rate 500 g/ha; for pest or weed control at 125 g/ha: rate 125 g/ha. In kind it is in vivo. The method, boiled down: as §2

For series [11], the system named is Lolium perenne (LOLPE). The description is as above. It counts as in vivo. The settings on record: Lolium perenne, evaluated after 14 or 15 days, read-out: Post-emergence activity, LOLPE (100=total damage to plant; 0=no damage to plant); for pest or weed control at 500 g/ha: rate 500 g/ha; for pest or weed control at 125 g/ha: rate 125 g/ha. The method, boiled down:
as §2

For series [12], the system named is Setaria faberi (SETFA). The description is as above. In kind it is in vivo. The settings on record: Setaria faberi, evaluated after 14 or 15 days, read-out: Post-emergence activity, SETFA (100=total damage to plant; 0=no damage to plant); for pest or weed control at 500 g/ha: rate 500 g/ha; for pest or weed control at 125 g/ha: rate 125 g/ha. The gist of the method: as §2

As usually defined, the melting point is the temperature, or range, at which the solid turns liquid. Compound `CCc1cc(C)cc(CC)c1C1=C(O)CC(CC(C)[S+]([O-])CC)CC1=O` (stereo not drawn) [Compound T29, 2-(2,6-diethyl-4-methylphenyl)-5-[2-(ethylsulfinyl)propyl]cyclohexane-1,3-dione] showed a melting point of 58 to 61 °C. In addition, the pest or weed control at 500 g/ha in series [1] was 100%. Moreover, the pest or weed control at 500 g/ha in the series on Avena fatua (AVEFA) [2] turned out to be 90%. Further, the pest or weed control at 500 g/ha in series [3] was 100%. The pest or weed control at 500 g/ha in series [4] is 100%. In addition, in the series with Lolium perenne (LOLPE) [5], the pest or weed control at 500 g/ha is 100%. Also, the pest or weed control at 500 g/ha in the series with Setaria faberi (SETFA) [6] turned out to be 100%. Further, the pest or weed control at 500 g/ha in series [7] came out at 90%. Further, the pest or weed control at 500 g/ha with Avena fatua (AVEFA) [8] amounted to 100%. Further, the pest or weed control at 500 g/ha in [9] was 100%. Further, in [10], the pest or weed control at 500 g/ha came to 100%. The pest or weed control at 500 g/ha in the series on Lolium perenne (LOLPE) [11] worked out at 90%. Also, the pest or weed control at 500 g/ha in the series with Setaria faberi (SETFA) [12] was 90%.
With `Cc1ccc(C)c(C2=C(OC(=O)N(C)CCC#N)CC3(CCOCC3)CC2=O)c1` [Compound P57], the melting point fell in the range of 108 to 114 °C.
`CCc1ccc(-c2ccc(Cl)cc2)cc1C1=C(O)CC2(CCOCC2)CC1=O` [Compound T4, 9-(5-(4′-chlorophenyl)-2-ethylphenyl)-3-oxaspiro[5.5]undecane-8,10-dione]: the melting point was in the range of 94.5 to 97.5 °C. The pest or weed control at 500 g/ha in series [1] is 70%. The pest or weed control at 500 g/ha in the series with Avena fatua (AVEFA) [2] was 70%. For the same compound, in [3], the pest or weed control at 500 g/ha was found to be 100%. In series [4], the pest or weed control at 500 g/ha stood at 100%. The pest or weed control at 500 g/ha in the series on Lolium perenne (LOLPE) [5] is 70%. Moreover, in the series with Setaria faberi (SETFA) [6], the pest or weed control at 500 g/ha is 100%. For the same compound, in [7], the pest or weed control at 500 g/ha was determined as 90%. For the same compound, the pest or weed control at 500 g/ha with Avena fatua (AVEFA) [8] was found to be 80%. Besides, the pest or weed control at 500 g/ha in [9] came out at 100%. For the same compound, the pest or weed control at 500 g/ha in series [10] was 100%. Besides, the pest or weed control at 500 g/ha with Lolium perenne (LOLPE) [11] worked out at 70%. The pest or weed control at 500 g/ha in the series on Setaria faberi (SETFA) [12] is 90%.
As to `Cc1cc(C)c(C2=C(O)CC3(CCOCC3)CC2=O)c(C)c1` [Compound T26], the pest or weed control at 500 g/ha was determined as 90% in [1]; 20% with Avena fatua (AVEFA) [2]; 100% in series [3]; 100% in series [4]; 90% with Lolium perenne (LOLPE) [5]; 70% in the series with Setaria faberi (SETFA) [6]. Further, the pest or weed control at 500 g/ha in series [7] was 60%; with Avena fatua (AVEFA) [8], 10%; in series [9], 80%; in [10], 100%; in the series on Lolium perenne (LOLPE) [11], 50%; with Setaria faberi (SETFA) [12], 80%.
In the case of `CCc1cc(C)cc(CC)c1C1=C(OC(=O)C(CC)CC)CC2(CCOCC2)CC1=O` [Compound P14], the pest or weed control at 500 g/ha in series [1] was 100%; in the series on Avena fatua (AVEFA) [2] it was 100%; in [3], 100%; in series [4], 90%; in the series with Lolium perenne (LOLPE) [5] it was 100%; with Setaria faberi (SETFA) [6], 100%. In addition, the pest or weed control at 125 g/ha in series [7] was found to be 80%; in the series with Avena fatua (AVEFA) [8], 80%; in series [9], 70%; in series [10] it was 60%; in the series with Lolium perenne (LOLPE) [11], 80%; with Setaria faberi (SETFA) [12], 60%.
Turning to `CSCCC1CC(=O)C(c2c(C)cc(C)cc2C)=C(O)C1` (stereo not drawn) [Compound T12], the pest or weed control at 500 g/ha in series [1] is 70%; in the series on Avena fatua (AVEFA) [2], 20%; in [3] it was 0%; in series [4], 30%; with Lolium perenne (LOLPE) [5], 40%; in the series on Setaria faberi (SETFA) [6], 0%. Moreover, the pest or weed control at 500 g/ha in [7] is 80%; in the series on Avena fatua (AVEFA) [8], 30%; in [9], 90%; in [10], 80%; in the series with Lolium perenne (LOLPE) [11], 60%; with Setaria faberi (SETFA) [12], 90%.
Take `CCOC(=O)OC1=C(c2c(CC)cc(C)cc2CC)C(=O)CC2(CCOCC2)C1` [Compound P16]: the pest or weed control at 500 g/ha (in [1]; with Avena fatua (AVEFA) [2]; in [3]; in series [4]; in the series with Lolium perenne (LOLPE) [5]; in the series on Setaria faberi (SETFA) [6]) was 100% each time. Moreover, the pest or weed control at 125 g/ha in [7] was 100%; in the series on Avena fatua (AVEFA) [8] it was 90%; in [9], 100%; in series [10] it was 100%; with Lolium perenne (LOLPE) [11] it was 100%; in the series on Setaria faberi (SETFA) [12], 70%.
As to `CCc1cc(C)cc(CC)c1C1=C(OC(=O)C(C)(C)C)CC2(CCOCC2)CC1=O` [Compound P4], the pest or weed control at 500 g/ha in series [1] was 100%; with Avena fatua (AVEFA) [2], 100%; in series [3], 100%; in [4], 90%; in the series with Lolium perenne (LOLPE) [5], 100%; with Setaria faberi (SETFA) [6], 100%. In addition, the pest or weed control at 500 g/ha in series [7] came out at 100%; with Avena fatua (AVEFA) [8], 90%; in [9], 80%; in [10] it was 100%; in the series on Lolium perenne (LOLPE) [11] it was 100%; in the series with Setaria faberi (SETFA) [12], 80%.
`CCc1cc(CC)c(C2=C(O)CC3(CCOCC3)CC2=O)c(CC)c1` [Compound T2]: the pest or weed control at 500 g/ha in series [1] is 80%; with Avena fatua (AVEFA) [2] it was 70%; in series [3] it was 100%; in series [4], 100%; in the series with Lolium perenne (LOLPE) [5], 100%; with Setaria faberi (SETFA) [6] it was 90%. For the same compound, the pest or weed control at 500 g/ha came out at 80% in [7]; 80% in the series with Avena fatua (AVEFA) [8]; 100% in [9]; 100% in series [10]; 80% in the series on Lolium perenne (LOLPE) [11]; 80% in the series with Setaria faberi (SETFA) [12].
Consider `C=CCCCCCCCCC(=O)OC1=C(c2c(CC)cc(C)cc2CC)C(=O)CC2(CCOCC2)C1` [Compound P47], for which the pest or weed control at 500 g/ha (in series [1]; in the series on Avena fatua (AVEFA) [2]; in series [3]; in series [4]; in the series on Lolium perenne (LOLPE) [5]; with Setaria faberi (SETFA) [6]) was 100% in each case. In addition, the pest or weed control at 125 g/ha in [7] amounted to 70%; with Avena fatua (AVEFA) [8], 60%; in [9], 70%; in series [10] it was 70%; with Lolium perenne (LOLPE) [11], 50%; in the series on Setaria faberi (SETFA) [12] it was 60%.

Values taken from patent US8084649B2, “Herbicides” (Syngenta Crop Protection, inc., priority 2007, dated 2011).
